34 compounds from ChEMBL document CHEMBL5252542, “Discovery and Optimization of 5-Amino-1,2,3-triazole-4-carboxamide Series against Trypanosoma cruzi” (J Med Chem, 2017) can be followed below.

For data set [1] the following is noted: buffer, pH 7.4.
For data set [2] the following is noted: mouse, in vivo, po, 10 mg/kg, 8 h.
For data set [3] the following is noted: mouse, in vivo, po, 10 mg/kg, 24 h.
The nature of data set [4]: Drug metabolism in po dosed NMRI mouse plasma assessed as release of 3-methoxyaniline. The class given is ADME, organism-based. As to conditions: in vivo.
The nature of data set [5]: Drug metabolism in mouse plasma assessed as release of 3-methoxyaniline measured after 5 hrs. The class given is ADME, cell-free.

Molecules are shown by their SMILES.
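Throughout, for logD: logD at pH 7.4 derived from a chromatographic hydrophobicity index measured by reversed-phase HPLC.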

In the case of `COc1cccc(N(C)C(=O)c2nnn(Cc3ccc(CN4CCOCC4)cc3)c2N)c1`, the logD in data set [1] is 2. The same measure, in the same setting: next, `COc1cccc(NC(=O)c2nnn(Cc3ccc(C4CC4)cc3)c2N)c1`: 3.2. As for `COc1ccnc(NC(=O)c2nnn(Cc3ccc(CN4CCOCC4)cc3)c2N)c1`, the logD in data set [1] came to 2. In data set [1], `Nc1c(-c2nc(C3CCC(O)CC3)no2)nnn1Cc1ccc(CN2CCOCC2)cc1` (stereo not given) had a logD of 0.9.

For the compound `COc1nnccc1-c1noc(-c2nnn(Cc3ccc(CN4CCOCC4)cc3)c2N)n1`, in data set [1], the logD is 1. The same measure, in the same setting: next, `COc1cccc(NC(=O)c2nnn(Cc3ccc(CN4CCOCC4)cc3)c2N)c1F`: 2.1; `Nc1c(C(=O)Nc2ccccc2)nnn1Cc1ccc(CN2CCOCC2)cc1`: 2. Same read-out and setting: with `COc1cccc(NC(=O)c2nnn(Cc3cc(C)on3)c2N)c1` the figure was 2; with `Cc1cccc(NC(=O)c2nnn(Cc3ccc(CN4CCOCC4)cc3)c2N)c1`, 2. Still for that read-out and setting: with `COc1cc(NC(=O)c2nnn(Cc3ccc(CN4CCOCC4)cc3)c2N)ccc1F` the figure was 2.1.

Compound `Nc1c(-c2nc(C3CCOCC3)no2)nnn1Cc1ccc(CN2CCOCC2)cc1` came in with a logD in data set [1] of 1.3. The same measure, in the same setting: next, `COc1cccc(NC(=O)c2nnn(CC3CCNCC3)c2N)c1`: 0.6; `COc1cccc(NC(=O)c2nnn(CC3CCN(C(C)=O)CC3)c2N)c1`: 1.2. The same measure, in the same setting: with `COc1cc(F)cc(NC(=O)c2nnn(Cc3ccc(CN4CCOCC4)cc3)c2N)c1` the figure was 2.4; with `COc1cccc(NC(=O)c2nnn(C(C)c3ccc(C(C)(C)C)cc3)c2N)c1` (stereo not given), 3.9. In turn, `COc1ccccc1-c1noc(-c2nnn(Cc3ccc(CN4CCOCC4)cc3)c2N)n1` had a logD in data set [1] of 2.1.

On to `COc1ncccc1-c1noc(-c2nnn(Cc3ccc(CN4CCOCC4)cc3)c2N)n1`, for which the logD in data set [1] was found to be 1.7. In data set [2], this compound yielded an AUC of 190000 ng·min/mL. The compound further returned a Cmax in data set [3] of 1300 ng/mL. The like results for `COc1cc(NC(=O)c2nnn(Cc3ccc(CN4CCOCC4)cc3)c2N)nc(OC)n1` were, in that order, 2.1, 300000 ng·min/mL and 1300 ng/mL.

In turn, `COc1cc(NC(=O)c2nnn(Cc3ccc(CN4CCOCC4)cc3)c2N)cc(OC)c1` showed a logD in data set [1] of 2.2. The compound further gave an AUC in data set [2] of 370000 ng·min/mL. Moreover, the peak concentration (Cmax) in data set [3] is 1600 ng/mL. In data set [1], `COC1CCCC(NC(=O)c2nnn(Cc3ccc(CN4CCOCC4)cc3)c2N)C1` (stereo not given) had a logD of 2. Same read-out and setting: next, `Nc1c(C(=O)NC23CC4CC(CC(C4)C2)C3)nnn1Cc1ccc(CN2CCOCC2)cc1`: 2. Consider `COc1cccc(NC(=O)c2nnn(Cc3ccc(C(C)C)cc3)c2N)c1`, for which the logD in data set [1] is 3.4. This compound also registered an AUC in data set [2] of 3200 ng·min/mL. The compound also showed a Cmax in data set [3] of 17 ng/mL.

In turn, `Nc1c(-c2nc(-c3ccccc3)no2)nnn1Cc1ccc(CN2CCOCC2)cc1` showed a logD in data set [1] of 2.6. The same measure, in the same setting: next, `COc1cccc(NC(=O)c2nnn(CC3CCN(C(=O)OC(C)(C)C)CC3)c2N)c1`: 2.9. For the compound `COc1cccc(NC(=O)c2nnn(Cc3ccc(CN4CCOCC4)cc3)c2N)c1`, the Drug metabolism result in data set [4] and in data set [5] was “Metabolite_Notdetected” throughout. In the case of `COc1cccc(NC(=O)c2nnn(Cc3ccc(C#N)cc3)c2N)c1`, the log distribution coefficient (logD) in data set [1] came out at 2.3. Still for that read-out and setting: next, `COc1cccc(NC(=O)c2nnn(Cc3ccc([S+](C)[O-])cc3)c2N)c1` (stereo not given): 1.3; `COc1cccc(NC(=O)c2nnn(Cc3ccc(-n4cccn4)cc3)c2N)c1`: 2.4. Turning to `COc1cccc(NC(=O)c2nnn(Cc3ccc(OC(F)(F)F)cc3)c2N)c1`, the logD in data set [1] stood at 3.6. This compound gave an AUC in data set [2] of 2300 ng·min/mL. This compound also showed a Cmax in data set [3] of 13 ng/mL. In turn, `COc1cccnc1-c1noc(-c2nnn(Cc3ccc(CN4CCOCC4)cc3)c2N)n1` displayed a logD in data set [1] of 1.

As for `Cc1noc(C)c1-c1noc(-c2nnn(Cc3ccc(CN4CCOCC4)cc3)c2N)n1`, the logD in data set [1] came to 2.1.

For `COc1cnccc1-c1noc(-c2nnn(Cc3ccc(CN4CCOCC4)cc3)c2N)n1`, the logD in data set [1] was found to be 1.1. On the same count and under the same terms, with `COc1cccc(NC(=O)c2nnn(Cc3ccncc3)c2N)c1` the figure was 1.4; with `COc1cccc(NC(=O)c2nnn(Cc3ccccc3)c2N)c1`, 2.6.
